The compounds below were run on PDE IV (assay: Inhibition of PDE IV activity (method of Bauer and Schwabe, adapted to microtiter plates)). Settings: Hemmung der PDE IV-Aktivität.
Format: biochemical
Protocol: Hierbei erfolgt im ersten Schritt die PDE-Reaktion. In einem zweiten Schritt wird das entstandene 5'-Nukleotid durch eine 5'-Nukleotidase des Schlangengiftes von Crotalus Atrox zum ungeladenen Nukleosid gespalten. Im dritten Schritt wird das Nukleosid auf lonenaustauschsäulen vom verbliebenen geladenen Substrat getrennt. Die Säulen werden mit 2 ml 30 mM Ammoniumformiat (pH 6,0) direkt in Minivials eluiert, in die noch 2 ml Szintillatorflüssigkeit zur Zählung gegeben wird.

In order of rising “-log IC50” value:
1. COc1cc2c(cc1OC)C1C3CCC(CC3)C1N=C2c1ccc(NS(=O)(=O)c2ccc(C)cc2)cc1 (racemic) [Verbindung 12, (+/-)-trans-8,9-Dimethoxy-1,4-ethano-6-(4-p-toluolsulfonamidophenyl)-1,2,3,4,4a,10bhexahydrophenanthridin]  5.77
2. COc1cc2c(cc1OC1CCCC1)C(c1ccc(NS(=O)(=O)c3ccc(C)cc3)cc1)=N[C@@H]1CCCC[C@H]21 (racemic) [Verbindung 4, (+/-)-cis-8-Cyclopentyloxy-9-methoxy-6-(4-p-toluolsulfonamidophenyl)-1,2,3,4,4a,10bhexahydrophenanthridin]  6.12
3. COc1cc2c(cc1OC)C1CCCCC1N=C2c1ccc(NS(=O)(=O)c2ccc(C)cc2)cc1 (racemic) [Verbindung 9, (+/-)-trans-8,9-Dimethoxy-6-(4-p-toluolsulfonamidophenyl)-1,2,3,4,4a,10b-hexahydrophenanthridin-hydrochtorid]  6.17
4. COc1cc2c(cc1OC)[C@H]1CCCC[C@H]1N=C2c1c(Cl)cccc1Cl (racemic) [Verbindung 6, (+/-)-cis-8,9-Dimethoxy-6-(2,6-dichlorphenyl)-1,2,3,4,4a,10b-hexahydrophenanthridin]  6.77
5. COc1cc2c(cc1OC)[C@@H]1CCCC[C@@H]1N=C2c1ccc([N+](=O)[O-])cc1 (racemic) [Verbindung 5, (+/-)-cis-8,9-Dimethoxy-6-(4-nitrophenyl)-1,2,3,4,4a,10b-hexahydrophenanthridin]  7.22
6. COc1cc2c(cc1OC)[C@H]1CCCC[C@H]1N=C2c1ccc(N(S(=O)(=O)c2ccc(C)cc2)S(=O)(=O)c2ccc(C)cc2)cc1 (racemic) [Verbindung 33, (+/-)-cis-8,9-Dimethoxy-6-[4-bis(p-toluolsulfonyl)aminophenyl]-1,2,3,4,4a,10b-hexahydrophenanthridin]  7.27
7. COc1cc2c(cc1OC)[C@@H]1CCCC[C@@H]1N=C2c1ccc(NC(C)=O)cc1 (racemic) [Verbindung 31, (+/-)-cis-8,9-Dimethoxy-6-(4-acetamidophenyl)-1,2,3,4,4a,10b-hexahydrophenanthridin]  7.30
8. COc1cc2c(cc1OC)[C@H]1CCCC[C@H]1N=C2c1ccc(N(C(C)=O)S(=O)(=O)c2ccc(C)cc2)cc1 (racemic) [Verbindung 34, (+/-)-cis-8,9-Dimethoxy-6-[(N-acetyl-4-p-toluolsulfonamido)phenyl]-1,2,3,4,4a,10b-hexahydrophenanthridin]  7.42
9. CCOc1cc2c(cc1OC)C(c1ccc(N)cc1)=N[C@H]1CCCC[C@@H]21 (racemic) [Verbindung 29, (+/-)-cis-9-Ethoxy-8-methoxy-6-(4-aminophenyl)-1,2,3,4,4a,10b-hexahydrophenanthridin]  7.69
10. COc1cc2c(cc1OC)[C@H]1CCCC[C@H]1N=C2c1ccc(NS(=O)(=O)c2ccc(C)cc2)cc1 (racemic) [Verbindung 1, (+/-)-cis-8,9-Dimethoxy-6-(4-p-toluolsulfonamidophenyl)-1,2,3,4,4a,10b-hexahydrophenanthridin]  7.73
11. COc1cc2c(cc1OC1CCCC1)[C@H]1CCCC[C@H]1N=C2c1ccc(NS(=O)(=O)c2ccc(C)cc2)cc1 (racemic) [Verbindung 3, (+/-)-cis-9-Cyclopentyloxy-8-methoxy-6-(4-p-toluolsulfonamidophenyl)-1,2,3,4,4a,10bhexahydrophenanthridin]  7.76
12. CCOc1cc2c(cc1OCC)[C@H]1CCCC[C@H]1N=C2c1ccc(F)cc1 (racemic) [Verbindung 16, (+/-)-cis-8,9-Diethoxy-6-(4-fluorphenyl)-1,2,3,4,4a,10b-hexahvdrophenanthridin]  7.93
13. CCOc1cc2c(cc1OCC)[C@H]1CCCC[C@H]1N=C2c1ccc(OC(F)(F)F)cc1 (racemic) [Verbindung 19, (+/-)-cis-8,9-Diethoxy-6-(4-trifluormethoxyphenyl)-1,2,3,4,4a,10b-hexahydrophenanthridin]  7.97
14. CCOc1cc2c(cc1OCC)[C@@H]1CCCC[C@@H]1N=C2c1ccc(-c2ccccc2)cc1 (racemic) [Verbindung 15, (+/-)-cis-6-Biphenyl-8,9-diethoxy-1,2,3,4,4a,10b-hexahydrophenanthridin]  7.98
15. CCOc1cc2c(cc1OCC)[C@H]1CCCC[C@H]1N=C2c1ccc(C(F)(F)F)cc1 (racemic) [Verbindung 17, (+/-)-cis-8,9-Diethoxy-7-(4-trifluormethylphenyl)-1,2,3,4,4a,10b-hexahydrophenanthridin]  8.00
16. CCOc1cc2c(cc1OCC)[C@@H]1CCCC[C@@H]1N=C2c1ccc(O)cc1 (racemic) [Verbindung 37, (+/-)-cis-8,9-Diethoxy-6-(4-hydroxyphenyl)-1,2,3,4,4a,10b-hexahydrophenanthridin]  8.04
17. CCOc1cc2c(cc1OCC)[C@@H]1CCCC[C@@H]1N=C2c1ccc(Cc2ccccc2)cc1 (racemic) [Verbindung 14, (+/-)-cis-6-(4-Benzylphenyl)-8,9-diethoxy-1,2,3,4,4a,10b-hexahydrophenanthridin]  8.08
18. CCOc1cc2c(cc1OCC)[C@@H]1CCCC[C@@H]1N=C2c1ccncc1.Cl.Cl (racemic) [Verbindung 24, (+/-)-cis-8,9-Diethoxy-6-(pyrid-4-yl)-1,2,3,4,4a,10b-hexahydrophenanthridin-dihydrochlorid]  8.08
19. CCOc1cc2c(cc1OC)C(c1ccc(NC(C)=O)cc1)=N[C@H]1CCCC[C@@H]21 (racemic) [Verbindung 32, (+/-)-cis-9-Ethoxy-8-methoxy-6-(4-acetamidophenyl)-1,2,3,4,4a,10b-hexahydrophenanthridin]  8.38
20. CCOc1cc2c(cc1OCC)[C@H]1CCCC[C@H]1N=C2c1ccc(NS(=O)(=O)c2ccc(C)cc2)cc1 (racemic) [Verbindung 2, (+/-)-cis-8,9-Diethoxy-6-(4-p-toluolsulfonamidophenyl)-1,2,3,4,4a,10b-hexahydrophenanthridin]  8.39
21. CCOc1cc2c(cc1OCC)[C@@H]1CCCC[C@@H]1N=C2c1ccc(OC(C)=O)cc1 (racemic) [Verbindung 13, (+/-)-cis-6-(4-Acetoxyphenyl)-8,9-diethoxy-1,2,3,4,4a,10b-hexahydrophenanthridin]  8.43
22. CCOc1cc2c(cc1OC)C(c1ccc([N+](=O)[O-])cc1)=N[C@H]1CCCC[C@@H]21 (racemic) [Verbindung 21, (+/-)-cis-9-Ethoxy-8-methoxy-6-(4-nitrophenyl)-1,2,3,4,4a,10b-hexahydrophenanthridin]  8.46
23. CCOc1cc2c(cc1OC)C(c1ccc(S(C)(=O)=O)cc1)=N[C@H]1CCCC[C@@H]21 (racemic) [Verbindung 22, (+/-)-cis-9-Ethoxy-8-methoxy-6-(4-methansulfonylphenyl)-1,2,3,4,4a,10b-hexahydrophenanthridin]  8.66

— EP0889886B1, “NOVEL PHENANTHRIDINES SUBSTITUTED IN THE 6 POSITION” (ALTANA Pharma AG, priority 1996, dated 1997)
